Reference: EP2966448B1, “METHOD FOR THE PREDICTION OR PROGNOSIS OF THE RESPONSE OF A HUMAN SUBJECT SUFFERING FROM CANCER TO TREATMENT WITH AN ANTAGONIST OF THE NK1 RECEPTOR” (priority 2013, dated 2014)
Like-named read-outs stand apart in the source and are kept apart here.

Experiments:
[1] = tested on: Gastric carcinoma; experiment: Inhibition of primary tumor cell cultures (48 hours) vs NK1 receptor immunostaining (Example 1); format: cell-based; details: Homo sapiens, 1 micromolar, read-out: Percentage of inhibition of cell cultures
Description: (§1) Cell cultures. To obtain tumor cells from human primary tumors we used the method described in De Bari et al. (De Bari et al. 2001). Briefly, small pieces of the tumors were digested into a hyaluronidase solution (Sigma-Aldrich, USA) at a concentration of 1 mg/ml during 15 minutes at 37°C, and then they were treated with 6 mg/ml of collagenase type IV (Invitrogen) during 2 hours at 37°C. Consecutively, cells were washed, and resuspended in the DMEM culture medium with high concentration of glucose (Dulbecco's Modified Eagle's Medium, Invitrogen) supplemented with 1% of antibiotics-antimycotics (Invitrogen) and with 1% of sodium pyruvate (Invitrogen), and the cells were seeded in culture slides at a concentration of 10.000 cells per square centimeter. When cells reached confluence, the adherent cells were separated using sterile trypsin at 0,5% (Invitrogen) and they were used among passages 3 and 9. For the assays shown next, tumor cells were seeded on slides at a concentration of 25.000 cells per well. A total of 6 wells containing the tumor cells were used as survival control. […] All the cultures were kept during 48 hours and later on recollected for their analysis.
(§2) Immunohistochemistry techniques. The presence of NK1 receptors was also analyzed using immunohistochemistry techniques. Briefly, a sample of each of the cultures of the cell lines used in the present invention, was centrifuged (5 minutes at 1.500 rpm) and the pellet obtained was dehydrated using increasing concentrations of ethanol and, finally, xylol. Then, said dehydrated samples were embedded in paraffin, creating a block of cells. Such paraffin blocks were cut with a microtome at 5 microns thickness, and were placed on microscope slides adequate to perform immunohistochemistry techniques. Consecutively, they were de-paraffinized by immersing them in xylol, to be finally hydrated using a solution containing decreasing concentrations of ethanol, and finally submerged them into water. […] After this, the samples were left to cool down at room temperature for 10 minutes. The endogenous peroxidase activity was blocked with 3% peroxide of hydrogen for 30 minutes at room temperature. After washing the samples with 0.05 M of Tris buffer, they were incubated with 10% non-immune pork serum at for 30 minutes at room temperature. To analyze the expression of NK1 receptors, the cellular samples were incubated in the presence of anti-NK1 antibodies (S8305, Sigma-Aldrich) diluted 1:1000, overnight at 4°C. Afterwards, the samples were washed in Tris buffer 0.05 M at room temperature. The next step was the addition of Envision System-HRP (Dako) reagents for 30 minutes at room temperature. Then, the samples were washed again in Tris buffer 0.05 M and the immunoreactivity was visualized through light microscopy with a chromogenic solution containing 3,3'-Diaminobenzidine (DAB+; Dako, USA). To differentiate the cell nuclei, they were slightly stained with hematoxylin. As negative control, it was used samples not incubated with the primary antibody anti-NK1, which was replaced by non-immune serum. All the samples were evaluated.
(§3) To value the immunostaining in each of the cases six cuts were performed to be analyzed by the immunohistochemistry technique. In each of the six cuts, it was counted cells in 20 fields (magnification 400x) using an Olympus microscope (model CX31). In each field it was counted the total number of cells and the number of cells presenting immunostaining, calculating afterwards the percentage of cells which presented immunostaining.

[2] = tested on: Carcinoma of the uterine cervix; experiment: as above; format: cell-based; details: Homo sapiens, 1 micromolar, read-out: Percentage of inhibition of cell cultures
Description: as §1, §2, §3

[3] = tested on: human primary tumor cells; experiment: Inhibition of primary tumor cell cultures vs absence or presence of ERK  protein (Example 3; tumor type per table line); format: cell-based; details: for Percentage of inhibition of cell cultures: 100 micromolar
Description: (§4) Cell cultures. […] Briefly, small pieces of the tumors were digested into a hyaluronidase solution (Sigma-Aldrich, USA) at a concentration of 1 mg/ml during 15 minutes at 37°C, and then they were treated with 6 mg/ml of collagenase type IV (Invitrogen) during 2 hours at 37°C. Consecutively, cells were washed, and resuspended in the DMEM culture medium with high concentration of glucose (Dulbecco's Modified Eagle's Medium, Invitrogen) supplemented with 1% of antibiotics-antimycotics (Invitrogen) and with 1% of sodium pyruvate (Invitrogen), and the cells were seeded in culture slides at a concentration of 10.000 cells per square centimeter. When cells reached confluence, the adherent cells were separated using sterile trypsin at 0,5% (Invitrogen) and they were used among passages 3 and 9. For the assays shown next, tumor cells were seeded on slides at a concentration of 25.000 cells per well. A total of 6 wells containing the tumor cells were used as survival control. […] All the cultures were kept during 48 hours and later on recollected for their analysis.
Consecutively, the cells were placed in cultures in the presence of several antagonists of the NK1 receptor.
In each case it was determined the presence or absence of the downstream effector in the MAP Kinases ERK pathway.
To determine the presence of the ERK protein, it was performed a Western Blot technique, using as primary antibody: Phospho-p44/42 MAPK (Erk1/2) (Thr202/Tyr204) (D13.14.4E) XP® Rabbit mAb (4370, Cell Signalling). To determine the presence of the MEK protein, it was performed the Western Blot technique, using as primary antibody Phospho-MEK1/2 (Ser217/221) (9121, Cell Signalling).
The antibody against NK1 receptor (Table 21) was used at 1/50 concentration. The percentages of inhibition are expressed in percentages of variation in relation to control ± standard deviation.

[4] = tested on: Thyroid carcinoma (papillary carcinoma); experiment: Inhibition of primary tumor cell cultures vs Kras mutation (Example 2); format: cell-based, human; details: Thyroid carcinoma (papillary carcinoma), 100 micromolar
Description: To obtain tumor cells from human primary tumors we used the method described in De Bari et al. (De Bari et al. 2001). Briefly, small pieces of the tumors were digested into a hyaluronidase solution (Sigma-Aldrich, USA) at a concentration of 1 mg/ml during 15 minutes at 37°C, and then they were treated with 6 mg/ml of collagenase type IV (Invitrogen) during 2 hours at 37°C. Consecutively, cells were washed, and resuspended in the DMEM culture medium with high concentration of glucose (Dulbecco's Modified Eagle's Medium, Invitrogen) supplemented with 1% of antibiotics-antimycotics (Invitrogen) and with 1% of sodium pyruvate (Invitrogen), and the cells were seeded in culture slides at a concentration of 10.000 cells per square centimeter. When cells reached confluence, the adherent cells were separated using sterile trypsin at 0,5% (Invitrogen) and they were used among passages 3 and 9. For the assays shown next, tumor cells were seeded on slides at a concentration of 25.000 cells per well. A total of 6 wells containing the tumor cells were used as survival control. […] All the cultures were kept during 48 hours and later on recollected for their analysis.
(§5) In each case the presence or not of mutations in K-ras gene was determined.
(§6) To determine the existence of mutations in the K-ras gene DNA from cancer tumor cells was extracted from samples obtained from the different cancer tumor cells, using DNA extraction kits from Takara (Madison, WI, US) or Ambion (Huntingdon, Cambridgeshire, United Kingdom), following the manufacturer's instructions, and as it has been previously published (Di Fiore F, et al. 2007). Consecutively it was analyzed by sequencing the exon 2 of the KRAS gene, , by means of PCR amplification from previously extracted cancer tumor DNA, using the following sense primer (SEQ ID NO. 15): 5'-[sequence]-3' and anti-sense primer (SEQ ID NO. 16): 5'-[sequence]-3'. After the purification using the Qiagen extraction kit, the PCR products were sequenced using the Big Dye Terminator Kit V3.1 (Applied Biosystems, Foster City, CA, U.S.) and an ABI Prism 377 or 3100 DNA sequencer (Applied Biosystems). The presence of a heterozygous mutation in the KRAS gene in cancer tumor cells of the cultures was defined as the appearance of a mutant peak of a height of at least a third of the wild type. All the sequence analysis were executed at least twice in two independent PCR.
The antibody against NK1 receptor (Table 16) was used at 1/50 concentration. The percentages of inhibition are expressed in percentage of variation in relation to control ± standard deviation.

[5] = tested on: human primary tumor cells; experiment: Inhibition of primary tumor cell cultures vs absence or presence of AKT protein (Example 4; tumor type per table line); format: cell-based; details: cancer cell cultures showing more presence of AKT, compared; non-peptidic antagonists 100 micromolar, antibody 1/50
Description: as §4
Afterwards, the cells were cultured in presence of several antagonists of the NK1 receptor.
In each case it was determined the presence or absence of the AKT protein effector downstream in the PI3 Kinases pathway.
To determine the presence of the AKT protein in the different cultures Western Blot technique was performed (following the description in example 1-Western Blot section), but using as primary antibody with reference: Akt (pan) (11E7) Rabbit mAb (4685, Cell Signalling).
The antibody against NK1 receptor (Table 26) was used at 1/50 concentration. The percentages of inhibition are expressed in percentage of variation in relation to control ± standard deviation.

[6] = tested on: Melanoma (Nodular Melanoma); experiment: Inhibition of primary tumor cell cultures vs Kras mutation (Example 2); format: cell-based, human; details: Melanoma (Nodular Melanoma), 100 micromolar
Description: as §1, §5, §6
(§7) The percentages of inhibition are expressed in percentage of variation in relation to control ± standard deviation.

[7] = tested on: Undifferentiated Pleomorphic Sarcoma (malignant fibrous histiocytoma grade 3); experiment: as above; format: cell-based, human; details: Undifferentiated Pleomorphic Sarcoma (malignant fibrous histiocytoma grade 3), 100 micromolar
Description: as §1, §5, §6, §7

[8] = tested on: Pancreatic carcinoma; experiment: Inhibition of primary tumor cell cultures (48 hours) vs NK1 receptor immunostaining (Example 1); format: cell-based; details: Homo sapiens, 1 micromolar, read-out: Percentage of inhibition of cell cultures
Description: as §1, §2, §3

[9] = tested on: Fibrosarcoma; experiment: as above; format: cell-based; details: Homo sapiens, 1 micromolar, read-out: Percentage of inhibition of cell cultures
Description: as §1, §2, §3

[10] = tested on: Prostate carcinoma; experiment: Inhibition of primary tumor cell cultures vs Kras mutation (Example 2); format: cell-based, human; details: Prostate carcinoma, 100 micromolar
Description: as §1, §5, §6, §7

[11] = tested on: Endometrium carcinoma; experiment: cells; details: Homo sapiens, 1 micromolar
Description: as §1, §2, §3

[12] = NK1 receptor immunostaining Group 1 (less than 20% of the cells)
[13] = NK1 receptor immunostaining Group 2 (20-80% of the cells)
[14] = NK1 receptor immunostaining Group 3 (more than 80% of the cells)
[15] = NK1 receptor immunostaining Intensity grade 1
[16] = NK1 receptor immunostaining Intensity grade 2
[17] = NK1 receptor immunostaining Intensity grade 3
[18] = Cases with Kras non-mutated (wild type)

## Cc1cc(F)ccc1[C@H]1CNCCN1C(=O)N(C)[C@H](C)c1cc(C(F)(F)F)cc(C(F)(F)F)c1 [Vestipitant]
[1]; [12]
  inhibition at 1 µM: 11 ± 3%
[1]; [13]
  inhibition at 1 µM: 48 ± 3%
[1]; [14]
  inhibition at 1 µM: 92 ± 3%
[1]; [15]
  inhibition at 1 µM: 19 ± 4%
[1]; [16]
  inhibition at 1 µM: 49 ± 4%
[1]; [17]
  inhibition at 1 µM: 92 ± 4%
[2]; [12]
  inhibition at 1 µM: 17 ± 4%
[2]; [13]
  inhibition at 1 µM: 46 ± 3%
[2]; [14]
  inhibition at 1 µM: 94 ± 4%
[2]; [15]
  inhibition at 1 µM: 19 ± 3%
[2]; [16]
  inhibition at 1 µM: 48 ± 3%
[2]; [17]
  inhibition at 1 µM: 94 ± 3%
[3]; Breast carcinoma (ductal adenocarcinoma), cases with presence of ERK
  Percentage of inhibition of cell cultures: 94±3 percentage
[3]; Breast carcinoma (ductal adenocarcinoma), cases without presence of ERK
  Percentage of inhibition of cell cultures: 26±4 percentage
[3]; Burkitt Lymphoma, cases with presence of ERK
  Percentage of inhibition of cell cultures: 93±5 percentage
[3]; Burkitt Lymphoma, cases without presence of ERK
  Percentage of inhibition of cell cultures: 26±4 percentage
[3]; Carcinoma of the uterine cervix (Squamous cell carcinoma), cases with presence of ERK
  Percentage of inhibition of cell cultures: 94±4 percentage
[3]; Carcinoma of the uterine cervix (Squamous cell carcinoma), cases without presence of ERK
  Percentage of inhibition of cell cultures: 29±3 percentage
[3]; Colon carcinoma (Adenocarcinoma), cases with presence of ERK
  Percentage of inhibition of cell cultures: 94±3 percentage
[3]; Colon carcinoma (Adenocarcinoma), cases without presence of ERK
  Percentage of inhibition of cell cultures: 23 percentage
[3]; Endometrium carcinoma, cases with presence of ERK
  Percentage of inhibition of cell cultures: 93±3 percentage
[3]; Endometrium carcinoma, cases without presence of ERK
  Percentage of inhibition of cell cultures: 28±5 percentage
[3]; Gastric carcinoma (Adenocarcinoma), cases with presence of ERK
  Percentage of inhibition of cell cultures: 95±3 percentage
[3]; Gastric carcinoma (Adenocarcinoma), cases without presence of ERK
  Percentage of inhibition of cell cultures: 24±4 percentage
[3]; Glioma (astrocytoma), cases with presence of ERK
  Percentage of inhibition of cell cultures: 95±3 percentage
[3]; Glioma (astrocytoma), cases without presence of ERK
  Percentage of inhibition of cell cultures: 27±4 percentage
[3]; Lung carcinoma (non small cell lung carcinoma), cases with presence of ERK
  Percentage of inhibition of cell cultures: 95±5 percentage
[3]; Lung carcinoma (non small cell lung carcinoma), cases without presence of ERK
  Percentage of inhibition of cell cultures: 26±2 percentage
[3]; Lung carcinoma (small cell lung carcinoma), cases with presence of ERK
  Percentage of inhibition of cell cultures: 96±6 percentage
[3]; Lung carcinoma (small cell lung carcinoma), cases without presence of ERK
  Percentage of inhibition of cell cultures: 27±4 percentage
[3]; Melanoma (Nodular Melanoma), cases with presence of ERK
  Percentage of inhibition of cell cultures: 94±5 percentage
[3]; Melanoma (Nodular Melanoma), cases without presence of ERK
  Percentage of inhibition of cell cultures: 25±3 percentage
[3]; Non Hodgkin Lymphoma B (diffuse B cell lymphoma), cases with presence of ERK
  Percentage of inhibition of cell cultures: 96±3 percentage
[3]; Non Hodgkin Lymphoma B (diffuse B cell lymphoma), cases without presence of ERK
  Percentage of inhibition of cell cultures: 24±4 percentage
[3]; Non Hodgkin Lymphoma T (diffuse T cell lymphoma), cases with presence of ERK
  Percentage of inhibition of cell cultures: 92±4 percentage
[3]; Non Hodgkin Lymphoma T (diffuse T cell lymphoma), cases without presence of ERK
  Percentage of inhibition of cell cultures: 25±2 percentage
[3]; Ovarian carcinoma (Adenocarcinoma), cases with presence of ERK
  Percentage of inhibition of cell cultures: 95±5 percentage
[3]; Ovarian carcinoma (Adenocarcinoma), cases without presence of ERK
  Percentage of inhibition of cell cultures: 24±2 percentage
[3]; Pancreatic carcinoma (Adenocarcinoma), cases with presence of ERK
  Percentage of inhibition of cell cultures: 93±4 percentage
[3]; Pancreatic carcinoma (Adenocarcinoma), cases without presence of ERK
  Percentage of inhibition of cell cultures: 24±34 percentage
[3]; Prostate carcinoma, cases with presence of ERK
  Percentage of inhibition of cell cultures: 94±4 percentage
[3]; Prostate carcinoma, cases without presence of ERK
  Percentage of inhibition of cell cultures: 22±3 percentage
[3]; Renal cell carcinoma (clear cell renal cell carcinoma), cases with presence of ERK
  Percentage of inhibition of cell cultures: 92±2 percentage
[3]; Renal cell carcinoma (clear cell renal cell carcinoma), cases without presence of ERK
  Percentage of inhibition of cell cultures: 25±2 percentage
[3]; Thyroid carcinoma (follicular carcinoma), cases with presence of ERK
  Percentage of inhibition of cell cultures: 94±4 percentage
[3]; Thyroid carcinoma (follicular carcinoma), cases without presence of ERK
  Percentage of inhibition of cell cultures: 25±3 percentage
[3]; Thyroid carcinoma (papillary carcinoma), cases with presence of ERK
  Percentage of inhibition of cell cultures: 96±3 percentage
[3]; Thyroid carcinoma (papillary carcinoma), cases without presence of ERK
  Percentage of inhibition of cell cultures: 26±4 percentage
[3]; Undifferentiated Pleomorphic Sarcoma (malignant fibrous histiocytoma grade 3), cases with presence of ERK
  Percentage of inhibition of cell cultures: 93±4 percentage
[3]; Undifferentiated Pleomorphic Sarcoma (malignant fibrous histiocytoma grade 3), cases without presence of ERK
  Percentage of inhibition of cell cultures: 26±2 percentage
[3]; Urinary bladder carcinoma (transitional cell carcinoma), cases with presence of ERK
  Percentage of inhibition of cell cultures: 97±5 percentage
[3]; Urinary bladder carcinoma (transitional cell carcinoma), cases without presence of ERK
  Percentage of inhibition of cell cultures: 24±5 percentage
[3]; cancer cell cultures that show more presence of ERK, compared, non-peptidic antagonists 100 micromolar, antibody 1/50
  inhibition of cell proliferation: higher inhibition
[4]; Cases with Kras mutated
  Percentage of inhibition of cell cultures: 26±4 percentage
[4]; [18]
  Percentage of inhibition of cell cultures: 94±5 percentage
[5]
  inhibition of cell proliferation: higher inhibition
[6]; Cases with Kras mutated
  Percentage of inhibition of cell cultures: 23±5 percentage
[6]; [18]
  Percentage of inhibition of cell cultures: 96±5 percentage
[7]; Cases with Kras mutated
  Percentage of inhibition of cell cultures: 26±4 percentage
[7]; [18]
  Percentage of inhibition of cell cultures: 95±6 percentage
[8]; [12]
  inhibition at 1 µM: 11 ± 3%
[8]; [13]
  inhibition at 1 µM: 45 ± 2%
[8]; [14]
  inhibition at 1 µM: 91 ± 3%
[8]; [15]
  inhibition at 1 µM: 21 ± 4%
[8]; [16]
  inhibition at 1 µM: 47 ± 5%
[8]; [17]
  inhibition at 1 µM: 91 ± 5%
[9]; [12]
  inhibition at 1 µM: 16 ± 3%
[9]; [13]
  inhibition at 1 µM: 45 ± 3%
[9]; [14]
  inhibition at 1 µM: 91 ± 3%
[9]; [15]
  inhibition at 1 µM: 18 ± 2%
[9]; [16]
  inhibition at 1 µM: 47 ± 3%
[9]; [17]
  inhibition at 1 µM: 91 ± 2%
[10]; Cases with Kras mutated
  Percentage of inhibition of cell cultures: 24±4 percentage
[10]; [18]
  Percentage of inhibition of cell cultures: 96±4 percentage
[11]; read-out: Percentage of inhibition of cell cultures, NK1 receptor immunostaining Group 1 (less than 20% of the cells)
  inhibition at 1 µM: 15 ± 3%
[11]; read-out: Percentage of inhibition of cell cultures, NK1 receptor immunostaining Group 2 (20-80% of the cells)
  inhibition at 1 µM: 44 ± 3%
[11]; read-out: Percentage of inhibition of cell cultures, NK1 receptor immunostaining Group 3 (more than 80% of the cells)
  inhibition at 1 µM: 93 ± 6%
